Active and inactive are the calls of the source. No cut-off for these calls is given here.
How the values were obtained:
P2X purinoceptor 7 [1] = molecular target: T1, P2X purinoceptor 7 (Homo sapiens, UniProt Q99572); test: Antagonist activity at human P2X7 receptor in expressed in HEK293 cells assessed as inhibition of BzATP-induced EtBr uptake; format: cell-based
T1 sequence (Q99572 whole entry): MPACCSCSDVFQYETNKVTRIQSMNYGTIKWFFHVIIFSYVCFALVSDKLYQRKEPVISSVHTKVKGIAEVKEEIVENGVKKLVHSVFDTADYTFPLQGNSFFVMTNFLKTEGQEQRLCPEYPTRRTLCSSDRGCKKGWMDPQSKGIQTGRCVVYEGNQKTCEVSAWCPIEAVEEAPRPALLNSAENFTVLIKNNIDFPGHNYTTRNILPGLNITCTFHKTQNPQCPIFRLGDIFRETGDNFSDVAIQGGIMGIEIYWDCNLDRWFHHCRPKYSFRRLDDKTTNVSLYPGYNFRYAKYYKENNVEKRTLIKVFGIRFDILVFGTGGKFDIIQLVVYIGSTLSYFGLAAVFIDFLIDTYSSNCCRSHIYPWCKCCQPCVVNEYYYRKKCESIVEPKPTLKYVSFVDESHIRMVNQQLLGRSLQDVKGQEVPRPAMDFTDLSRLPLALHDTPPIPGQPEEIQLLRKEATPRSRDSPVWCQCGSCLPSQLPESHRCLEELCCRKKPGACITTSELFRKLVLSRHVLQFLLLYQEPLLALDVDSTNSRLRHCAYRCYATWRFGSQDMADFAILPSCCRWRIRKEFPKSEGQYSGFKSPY

[2] = Metabolic stability in rat liver microsomes assessed as parent compound remaining at 1 uM up to 30 mins in presence of NADPH by LC-MS/MS analysis; format: ADME, microsome; conditions: read-out: Stability
[3] = Metabolic stability in mouse liver microsomes assessed as parent compound remaining at 1 uM up to 30 mins in presence of NADPH by LC-MS/MS analysis; format: ADME, microsome; conditions: read-out: Stability
[4] = Cytotoxicity against HEK293 cells expressing human P2X7 receptor assessed as cell survival at 10 uM by MTT assay relative to control; format: cell-based; conditions: read-out: Survival
[5] = Effective permeability of the compound at 50 uM after 4 hrs by BBB-PAMPA method; format: ADME; conditions: read-out: Peff
[6] = Kinetic solubility of the compound in PAMPA buffer at 50 uM by nepheolometry method; format: physicochemical
[7] = molecular target: T2, P2X purinoceptor 7 (Homo sapiens) (UniProt Q99572); test: Antagonist activity at human P2X7 receptor expressed in HEK293 cells assessed as inhibition of BzATP-induced EtBr uptake at 1 uM after 2 hrs by fluorescence assay relative to control; format: cell-based
T2 sequence (whole entry): T1 sequence (Q99572 whole entry)

[8] = Kinetic solubility of the compound in PAMPA buffer at 25 uM by nepheolometry method; format: physicochemical
[9] = molecular target: T2, P2X purinoceptor 7 (Homo sapiens); test: Antagonist activity at human P2X7 receptor expressed in HEK293 cells assessed as inhibition of BzATP-induced EtBr uptake at 10 uM after 2 hrs by fluorescence assay relative to control; format: cell-based
[10] = Metabolic stability in human liver microsomes assessed as parent compound remaining at 1 uM up to 30 mins in presence of NADPH by LC-MS/MS analysis; format: ADME, microsome; conditions: read-out: Stability
[11] = Inhibition of neurosphere formation in human TS15-88 cells assessed as decrease in sphere size at 50 uM after 5 days by microscopic analysis relative to control; format: functional; conditions: 120 h
P2X purinoceptor 7 [12] = molecular target: T1, P2X purinoceptor 7; test: Antagonist activity at human P2X7 receptor expressed in HEK293 cells assessed as inhibition of BzATP-induced EtBr uptake after 2 hrs by fluorescence assay relative to control; format: cell-based
Homo sapiens [13] = organism: Homo sapiens; test: Antiproliferative activity against human TS15-88 cells at 50 uM after 24 hrs by MTS assay; format: functional, cell-based
Homo sapiens [14] = organism: Homo sapiens; test: Antiproliferative activity against human TS15-88 cells at 50 uM after 72 hrs by MTS assay; format: functional, cell-based
P2X purinoceptor 7 [15] = molecular target: T1, P2X purinoceptor 7; test: Antagonist activity at P2X7 in LPS/IFN gamma differentiated human THP-1 cells assessed as inhibition of BzATP-induced IL-1beta release preincubated for 30 mins followed by BzATP stimulation for 30 mins by ELISA; format: cell-based
[16] = Kinetic solubility of the compound in PAMPA buffer at 12.5 uM by nepheolometry method; format: physicochemical
[17] = molecular target: T2, P2X purinoceptor 7 (Homo sapiens); test: Antagonist activity at P2X7 in LPS/IFN gamma differentiated human THP-1 cells assessed as inhibition of BzATP-induced IL-1beta release at 10 uM preincubated for 30 mins followed by BzATP stimulation for 30 mins by ELISA; format: cell-based
[18] = molecular target: T2, P2X purinoceptor 7 (Homo sapiens); test: Antagonist activity at P2X7 in LPS/IFN gamma differentiated human THP-1 cells assessed as inhibition of BzATP-induced IL-1beta release at 1 uM preincubated for 30 mins followed by BzATP stimulation for 30 mins by ELISA; format: cell-based
P2X purinoceptor 3 = molecular target: T3, P2X purinoceptor 3 (Homo sapiens, UniProt P56373); test: Antagonist activity at human P2X3 receptor expressed in 1321N1 cells assessed as inhibition of ATP-induced calcium flux measured for 30 secs at 0.4 secs intervals by Flou-4-AM dye based fluorescence assay; format: cell-based; conditions: read-out: IC50
T3 sequence (P56373 whole entry): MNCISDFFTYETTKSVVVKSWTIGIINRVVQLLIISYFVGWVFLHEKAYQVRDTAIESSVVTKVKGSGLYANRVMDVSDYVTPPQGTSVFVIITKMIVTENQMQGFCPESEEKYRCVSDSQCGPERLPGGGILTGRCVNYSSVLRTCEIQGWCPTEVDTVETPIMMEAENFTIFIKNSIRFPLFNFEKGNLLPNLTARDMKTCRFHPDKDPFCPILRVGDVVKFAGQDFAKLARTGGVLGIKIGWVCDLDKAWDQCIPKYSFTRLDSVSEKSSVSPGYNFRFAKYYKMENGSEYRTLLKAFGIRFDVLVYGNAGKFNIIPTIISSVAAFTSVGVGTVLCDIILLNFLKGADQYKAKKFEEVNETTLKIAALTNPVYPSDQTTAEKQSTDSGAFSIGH

[19] = molecular target: T4, P2X purinoceptor 2 (Homo sapiens) (UniProt Q9UBL9); test: Antagonist activity at human P2X2 receptor expressed in 1321N1 cells assessed as inhibition of ATP-induced calcium flux at 1 uM measured for 30 secs at 0.4 secs intervals by Flou-4-AM dye based fluorescence assay relative to control; format: cell-based
T4 sequence (whole entry): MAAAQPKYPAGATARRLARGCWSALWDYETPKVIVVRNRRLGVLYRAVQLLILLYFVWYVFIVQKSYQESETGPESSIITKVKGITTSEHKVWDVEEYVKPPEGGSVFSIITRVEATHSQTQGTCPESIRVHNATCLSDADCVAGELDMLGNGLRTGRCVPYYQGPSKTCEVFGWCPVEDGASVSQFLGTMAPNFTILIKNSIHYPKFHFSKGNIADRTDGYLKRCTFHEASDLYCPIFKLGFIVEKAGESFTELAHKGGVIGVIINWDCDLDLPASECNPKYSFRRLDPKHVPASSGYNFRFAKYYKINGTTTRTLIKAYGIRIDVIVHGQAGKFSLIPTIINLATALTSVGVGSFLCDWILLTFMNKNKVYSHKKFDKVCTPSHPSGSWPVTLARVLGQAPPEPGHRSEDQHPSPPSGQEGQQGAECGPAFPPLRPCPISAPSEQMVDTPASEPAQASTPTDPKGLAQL

[20] = molecular target: T5, P2X purinoceptor 1 (Homo sapiens) (UniProt P51575); test: Antagonist activity at human P2X1 receptor expressed in 1321N1 cells assessed as inhibition of ATP-induced calcium flux at 1 uM measured for 30 secs at 0.4 secs intervals by Flou-4-AM dye based fluorescence assay relative to control; format: cell-based
T5 sequence (whole entry): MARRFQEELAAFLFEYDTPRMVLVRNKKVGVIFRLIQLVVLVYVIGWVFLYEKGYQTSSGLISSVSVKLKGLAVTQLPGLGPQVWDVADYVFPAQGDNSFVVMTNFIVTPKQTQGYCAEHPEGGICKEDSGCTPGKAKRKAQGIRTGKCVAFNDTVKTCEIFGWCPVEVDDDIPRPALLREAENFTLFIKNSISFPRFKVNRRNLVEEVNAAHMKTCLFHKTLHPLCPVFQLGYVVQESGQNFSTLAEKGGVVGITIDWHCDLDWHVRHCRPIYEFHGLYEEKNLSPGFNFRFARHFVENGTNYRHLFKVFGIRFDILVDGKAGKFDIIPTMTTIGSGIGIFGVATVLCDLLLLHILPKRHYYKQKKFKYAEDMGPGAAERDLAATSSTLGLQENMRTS

[21] = molecular target: T6, P2X purinoceptor 4 (Homo sapiens) (UniProt Q99571); test: Antagonist activity at human P2X4 receptor expressed in 1321N1 cells assessed as inhibition of ATP-induced calcium flux at 1 uM measured for 30 secs at 0.4 secs intervals by Flou-4-AM dye based fluorescence assay relative to control; format: cell-based
T6 sequence (whole entry): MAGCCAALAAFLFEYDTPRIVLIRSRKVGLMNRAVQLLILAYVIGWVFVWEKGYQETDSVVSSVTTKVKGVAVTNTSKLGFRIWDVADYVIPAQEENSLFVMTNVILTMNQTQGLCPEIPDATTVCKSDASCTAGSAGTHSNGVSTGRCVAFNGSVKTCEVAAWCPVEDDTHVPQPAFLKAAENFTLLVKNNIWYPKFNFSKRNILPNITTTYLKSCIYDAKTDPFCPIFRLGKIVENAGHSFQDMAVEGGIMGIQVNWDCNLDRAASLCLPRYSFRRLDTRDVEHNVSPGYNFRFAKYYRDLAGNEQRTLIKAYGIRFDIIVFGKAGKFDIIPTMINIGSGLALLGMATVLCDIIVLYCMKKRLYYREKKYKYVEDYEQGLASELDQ

[22] = Antiproliferative activity against human TS15-88 cells after 24 to 72 hrs by MTS assay; format: functional, cell-based

inhibition [17]	inhibition [18]	SMILES	viability at 10 µM [4]	inhibition [7]	inhibition [9]	inhibition at 50 µM [11]	IC50 (P2X purinoceptor 7 [12])	Activity (Homo sapiens [13])	Activity (Homo sapiens [14])	IC50 (P2X purinoceptor 7 [15])	also measured
–	–	Clc1cccc(-c2nnnn2Cc2cccnc2)c1Cl	–	–	–	–	–	–	–	–	IC50 (P2X purinoceptor 7 [1]): 300 nM
–	–	O=C(CC12CC3CC(CC(C3)C1)C2)Nc1cccc2nc(-c3ccc(CO)cc3)ccc12	95%	95%	98%	> 50%	3 nM	Active	Active	12 nM	remaining at 0.5 h, 1 µM [2]: 11.2%; remaining at 0.5 h, 1 µM [3]: 17%; Papp at 4 h, 50 µM [5]: 17.7 ×10⁻⁶ cm/s; Kinetic_solubility [6]: Soluble; Kinetic_solubility [8]: Soluble; remaining at 0.5 h, 1 µM [10]: 17.9%; Kinetic_solubility [16]: Soluble
44%	7%	CCOC(=O)c1cc2c(NC(=O)C34CC5CC(CC(C5)C3)C4)cccc2n(Cc2ccc(OC)cc2)c1=O	–	86%	88%	–	62 nM	–	–	–	–
28%	11%	CCCOC(=O)c1cc2c(NC(=O)C34CC5CC(CC(C5)C3)C4)cccc2n(Cc2ccc(OC)cc2)c1=O	–	82%	87%	–	263 nM	–	–	–	–
35%	12%	COC(=O)c1cc2c(NC(=O)C34CC5CC(CC(C5)C3)C4)cccc2n(Cc2ccc(F)cc2)c1=O	–	66%	86%	–	888 nM	–	–	–	–
–	–	N[C@H]1CCN(Cc2ccc(Cl)c(C(=O)NCC34CC5CC(CC(C5)C3)C4)c2)C1	–	–	–	–	–	–	–	–	IC50 (P2X purinoceptor 7 [1]): 85 nM
–	–	Nc1ccc(-c2ccc3c(NC(=O)CC45CC6CC(CC(C6)C4)C5)cccc3n2)cc1	98%	85%	93%	> 50%	10 nM	Active	Active	19 nM	remaining at 0.5 h, 1 µM [2]: 10.6%; remaining at 0.5 h, 1 µM [3]: 13.3%; Papp at 4 h, 50 µM [5]: 24.9 ×10⁻⁶ cm/s; Kinetic_solubility [6]: Soluble; Kinetic_solubility [8]: Soluble; remaining at 0.5 h, 1 µM [10]: 15.5%; Kinetic_solubility [16]: Soluble
42%	38%	COC(=O)c1cc2c(NC(=O)C34CC5CC(CC(C5)C3)C4)cccc2n(Cc2ccc([N+](=O)[O-])cc2)c1=O	–	61%	85%	–	809 nM	–	–	–	–
49%	inactive	COC(=O)c1cc2c(NC(=O)C34CC5CC(CC(C5)C3)C4)cccc2n(Cc2ccc(OC)cc2)c1=O	–	76%	87%	–	120 nM	–	–	–	–
–	–	CC(=O)[C@H]1CC[C@H]2[C@@H]3CCC4=CC(=O)CC[C@]4(C)[C@H]3CC[C@]12C [PROGESTERONE]	–	–	–	–	–	–	–	–	Papp at 4 h, 50 µM [5]: 36.6 ×10⁻⁶ cm/s; IC50 (P2X purinoceptor 3): 1600 nM
–	–	COc1ccc(-c2ccc3c(NC(=O)CC45CC6CC(CC(C6)C4)C5)cccc3n2)cc1	90%	89%	97%	> 50%	18 nM	inactive	Active	29 nM	inhibition [19]: 3%; inhibition [20]: 25%; IC50 (P2X purinoceptor 3): 3000 nM; inhibition [21]: 17%
–	–	COC(=O)c1ccc(-c2ccc3c(NC(=O)CC45CC6CC(CC(C6)C4)C5)cccc3n2)cc1	97%	90%	95%	> 50%	7 nM	Active	Active	33 nM	IC50 [22]: 35.6 µM
–	–	O=C1NC(=O)C(C2CCN(C(=O)c3ccc(Cl)c(C(F)(F)F)c3)CC2)C1Cc1ccc(OS(=O)(=O)c2cccc3cnccc23)cc1 (stereo not drawn)	–	–	–	–	–	–	–	–	IC50 (P2X purinoceptor 7 [1]): 54 nM
–	–	O=C(CC12CC3CC(CC(C3)C1)C2)Nc1cccc2nc(-c3ccc(O)cc3)ccc12	94%	79%	95%	> 50%	8 nM	Active	Active	6 nM	remaining at 0.5 h, 1 µM [2]: 12.9%; remaining at 0.5 h, 1 µM [3]: 14.5%; Papp at 4 h, 50 µM [5]: 16.4 ×10⁻⁶ cm/s; Kinetic_solubility [6]: Soluble; Kinetic_solubility [8]: Soluble; remaining at 0.5 h, 1 µM [10]: 21.5%; IC50 [22]: 25.6 µM; Kinetic_solubility [16]: Soluble
–	–	COc1ccc(CCN(C)CCCC(C#N)(c2ccc(OC)c(OC)c2)C(C)C)cc1OC (stereo not drawn)	–	–	–	–	–	–	–	–	remaining at 0.5 h, 1 µM [10]: 10.5%

From ChEMBL document CHEMBL4152208, “Synthesis and structure-activity relationships of quinolinone and quinoline-based P2X7 receptor antagonists and their anti-sphere formation activities in glioblastoma cells” (Eur J Med Chem, 2018)
